Data published in patent publication US20200323905A1, “METHODS AND COMPOSITIONS FOR MODULATING THE IMMUNE SYSTEM” (Trustees of Boston University, priority 2019, published 2020).
Entries after “also recorded” stand apart in the source; their conditions may differ.

Columns and labels:
Type in all cases: cell-based, mouse
WT CD4+ and CD8+ T cells = experiment: T-cell proliferation assay (CellTrace Violet or CFSE); details: DMSO- versus verteporfin-treated, 3 days post stimulation with IL-2, anti-CD3 and anti-CD28 (FIG. 6K)
Description: (§1) Cells were cultured and stimulated in 96-well plates at 1×10^5 cells per well. Plates were coated with anti-CD3 antibody (Biolegend) at concentrations of 0, 0.125, 0.25, 0.5, and 1 μg/ml at 4° C. overnight and were washed twice with PBS before incubation. Cells were stimulated in the anti-CD3-coated plates with soluble anti-CD28 at 2 μg/ml (Biolegend). On days 1 and 3, cells were stained with dead cell dye as well as antibodies recognizing the lineage and activation markers CD3 BUV737 (BD), CD4 BUV395 (BD), CD8 PerCP-Cy5.5 (Biolegend), CD69 PE (Biolegend), CD44 BV650 (Biolegend), and CD25 APC (Biolegend). For proliferation assays, CD4^+ or CD8^+ T cells were isolated and stained using the CellTrace Violet or CFSE Cell Proliferation Kit (Life Technologies). Briefly, purified cells were washed with PBS and incubated with CellTrace dye for 20 minutes at 37° C. protected from light. After 20 minutes, complete RMPI medium was added to the cell suspension, and the cells were incubated 5 minutes further before being washed and resuspended in complete RPMI medium. Cells were cultured in 96-well plates at 1×10^5 cells per well and were stimulated using anti-CD3/CD28 dynabeads (Gibco) at a 1:1 ratio with T cells. On days 1 and 3, cells were stained with dead cell dye, and proliferation was measured at the same time.

WT CD8+ T cells = experiment: T-cell activation marker expression by flow cytometry after IL-2 and CD3/CD28 stimulation
Description: (§2) Spleens from WT or Yap-cKO mice were pushed through a 70 μm mesh (Falcon) using an insulin syringe plunger and washed with PBS. Cells were treated with ACK red blood cell lysis buffer, and splenocyte single-cell suspensions were prepared for magnetic separation or stained for sorting by flow cytometry. CD4^+ or CD8^+ T-cell enrichment was performed using magnetic beads (Miltenyi Biotec or STEMCELL Technologies). Naïve CD4^+ T cells were isolated using a naïve CD4^+ T-cell isolation kit (Miltenyi Biotec).
(§3) Isolated splenocytes or tumor digests were washed with PBS and stained with the LIVE/DEAD fixable near-IR dead cell stain kit (Invitrogen). Cells were then washed with stain buffer (BD), resuspended in stain buffer containing Fc block (BD), and incubated for 5 minutes at 4° C. Surface antibodies were added in predetermined concentrations, and cells were incubated for 30 minutes at 4° C. or 15 minutes at room temperature, before being washed with BD stain buffer and resuspended in PBS for flow cytometric analysis. For intracellular cytokine staining, cells were fixed and permeabilized using the BD Cytofix/Cytoperm Fixation/Permeabilization kit (BD) after dead cell dye and surface staining. For transcription factor staining, the eBioscience Foxp3/transcription factor staining buffer set was used. Flow cytometry analyses were performed on BD LSRII at Boston University School of Medicine Flow Cytometry Facility or at the University of Maryland School of Medicine Center for Innovative Biomedical Resources, Flow Cytometry Shared Service and analyzed by Flowlo (TreeStar).
as §1, with “Cells were cultured in 96-well plates at 1×10^5 cells per well and were stimulated using anti-CD3/CD28 dynabeads (Gibco) at a 1:1 ratio with T cells.” left out

WT CD4+ T cells = experiment: as above
Description: as §2, §3
as §1, with “Cells were cultured in 96-well plates at 1×10^5 cells per well and were stimulated using anti-CD3/CD28 dynabeads (Gibco) at a 1:1 ratio with T cells.” left out

Substance: Verteporfin
- Proliferation of T cells isolated from WT mice (WT CD4+ and CD8+ T cells): did not significantly affect proliferation; also recorded: neither Yap deletion nor verteporfin treatment significantly impacted T-cell proliferation
- CD69 expression on WT CD8+ T cells (WT CD8+ T cells; 72 hours (3 days) post IL-2 and CD3/CD28 stimulation, increasing concentration of verteporfin (FIG. 6J, FIG. 11F)): increased levels of early activation markers
- CD71 expression on WT CD8+ T cells (WT CD8+ T cells; 72 hours post IL-2 and CD3/CD28 stimulation, increasing concentration of verteporfin (FIG. 1J)): increased levels of early activation markers CD71
- CD69 expression on WT CD4+ T cells (WT CD4+ T cells; 72 hours (3 days) post IL-2 and CD3/CD28 stimulation, increasing concentration of verteporfin (FIG. 6I, FIG. 11E)): increased levels of early activation markers
- CD71 expression on WT CD4+ T cells (WT CD4+ T cells; 72 hours post IL-2 and CD3/CD28 stimulation, increasing concentration of verteporfin (FIG. 1I)): increased levels of early activation markers CD71
